{
  "source": "patent US20110293720A1",
  "about": "“PROGESTIN-CONTAINING DRUG DELIVERY SYSTEM” (BAYER SCHERING PHARMA AKTIENGESELLSCHAFT, priority 2008, published 2011)",
  "assay": "Particle size distribution (d50/d70/d90, volume distribution, e.g. laser diffraction)",
  "type": "physicochemical",
  "details": "micronized active ingredient before coating",
  "description": "When used herein, the term “d90 particle size” is intended to mean that the particle size distribution is so that at least 90% of the particles have a particle diameter of less than the specified value, calculated from the volume distribution curve under the presumption of spherical particles. In a similar way, the term “d50 particle size” is intended to mean that the particle size distribution is so that at least 50% of the particles have a particle diameter of less than the specified value, calculated from the volume distribution curve under the presumption of spherical particles.\nTherefore, it is important to note that whenever the terms “particle size”, “particle size distribution”, “particle diameter”, “d90”, “d50”, etc., are used herein it should be understood that the specific values or ranges used in connection therewith are always meant to be determined from the volume distribution curve under the presumption of spherical particles. The particle size distribution may be determined by various techniques, e.g. laser diffraction, and will be known to the person skilled in the art. […] The particle size distribution of the particles comprising the progestin and the protective agent, when incorporated in the wafer, may be determined by dissolving the film forming matrix, separation of the protected particles, and drying the protected particles. […]",
  "data": [
    {"smiles": "C[C@]12CCC(=O)C=C1[C@@H]1C[C@@H]1[C@H]1[C@@H]3[C@@H]4C[C@@H]4[C@@]4(CCC(=O)O4)[C@@]3(C)CC[C@@H]12", "note": "[drospirenone]", "values": [
      {"measurement": "d50", "result": 2.2, "unit": "μm"},
      {"measurement": "d90", "result": 4.8, "unit": "μm"}
    ]}
  ]
}
